Source: US10519108B2, “Inhibitors of retinaldehyde dehydrogenases and methods of use” (The Board of Regents of the University of Oklahoma, priority 2015, dated 2019)

Experiments:
RALDH = RALDH activity in recovering choroid tissue homogenates, atRA synthesis by HPLC; type: biochemical; details: choroid cytosol fractions, DAR 5-25 μM, NAD 4 mM, all-trans-retinaldehyde 25 μM, 37° C. 30 min
Protocol: RALDH activity was assessed in choroid tissue homogenates in the presence of DAR (5-25 μM), or vehicle (EtOH) by measuring all-trans-retinoic acid (atRA) synthesis. Choroid cytosol fractions were incubated in the presence of cofactor NAD (4 mM) and all-trans-retinaldehyde (25 μM) at 37° C. for 30 min. Following incubation, retinoids were extracted and quantified using HPLC.

RALDH3 = target: T1, RALDH3 (Homo sapiens, UniProt P47895); test: RALDH3 activity by NADH synthesis, fluorescence-based NADH sensor; type: biochemical; details: in the presence of DAR
T1 sequence (P47895 1-512): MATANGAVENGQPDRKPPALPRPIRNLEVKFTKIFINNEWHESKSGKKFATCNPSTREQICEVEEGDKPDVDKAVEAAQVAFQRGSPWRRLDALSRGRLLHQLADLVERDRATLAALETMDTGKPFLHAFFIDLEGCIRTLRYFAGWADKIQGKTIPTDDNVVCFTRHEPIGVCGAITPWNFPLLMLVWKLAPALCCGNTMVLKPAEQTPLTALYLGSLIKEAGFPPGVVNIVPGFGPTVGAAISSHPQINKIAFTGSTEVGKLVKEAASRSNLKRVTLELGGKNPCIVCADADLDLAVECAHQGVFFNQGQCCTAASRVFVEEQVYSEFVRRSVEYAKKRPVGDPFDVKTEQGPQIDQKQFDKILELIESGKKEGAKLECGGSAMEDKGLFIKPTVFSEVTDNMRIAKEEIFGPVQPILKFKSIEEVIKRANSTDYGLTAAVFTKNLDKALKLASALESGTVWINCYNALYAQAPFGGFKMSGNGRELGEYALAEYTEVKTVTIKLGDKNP

RALDH2 = target: T2, RALDH2 (Homo sapiens, UniProt O94788); test: RALDH2 activity by NADH synthesis, fluorescence-based NADH sensor; type: biochemical
T2 sequence (O94788 1-518): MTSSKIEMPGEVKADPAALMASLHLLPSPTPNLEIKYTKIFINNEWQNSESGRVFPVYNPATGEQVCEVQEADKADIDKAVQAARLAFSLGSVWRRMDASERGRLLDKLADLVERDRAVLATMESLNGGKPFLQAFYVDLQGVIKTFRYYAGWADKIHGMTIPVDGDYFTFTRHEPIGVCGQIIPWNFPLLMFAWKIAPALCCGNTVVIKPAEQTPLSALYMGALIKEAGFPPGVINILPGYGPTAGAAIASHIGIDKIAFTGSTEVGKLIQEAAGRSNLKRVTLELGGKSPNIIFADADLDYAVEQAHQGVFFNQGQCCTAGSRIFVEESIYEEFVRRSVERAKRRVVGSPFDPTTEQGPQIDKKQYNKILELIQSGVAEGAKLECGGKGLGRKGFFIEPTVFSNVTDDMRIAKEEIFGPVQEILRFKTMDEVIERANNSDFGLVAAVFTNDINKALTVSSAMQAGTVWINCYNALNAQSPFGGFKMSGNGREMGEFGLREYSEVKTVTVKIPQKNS

[1] = target: T3, aldehyde dehydrogenase 2 (ALDH2) (Homo sapiens, UniProt P05091); test: ALDH2 activity by NADH synthesis, absorbance at 340 nm; type: biochemical
T3 sequence (P05091 18-517): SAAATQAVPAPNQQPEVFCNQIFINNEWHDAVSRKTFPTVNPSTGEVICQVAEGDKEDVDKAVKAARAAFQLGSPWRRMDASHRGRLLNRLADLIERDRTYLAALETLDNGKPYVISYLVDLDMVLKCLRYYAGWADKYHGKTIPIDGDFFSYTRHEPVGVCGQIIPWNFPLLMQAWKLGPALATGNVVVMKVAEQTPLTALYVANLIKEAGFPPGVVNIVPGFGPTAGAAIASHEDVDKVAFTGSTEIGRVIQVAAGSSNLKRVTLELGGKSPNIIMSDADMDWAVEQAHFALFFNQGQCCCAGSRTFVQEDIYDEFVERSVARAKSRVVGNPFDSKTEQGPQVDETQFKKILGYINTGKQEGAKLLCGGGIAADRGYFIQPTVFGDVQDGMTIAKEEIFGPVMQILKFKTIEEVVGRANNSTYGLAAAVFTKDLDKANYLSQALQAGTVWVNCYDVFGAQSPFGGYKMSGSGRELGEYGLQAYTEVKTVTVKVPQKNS

[2] = target: T4, retinaldehyde dehydrogenase 1 (RALDH1) (Homo sapiens, UniProt P00352); test: RALDH1 activity by NADH synthesis, fluorescence-based NADH sensor; type: biochemical; details: in the presence of DAR
T4 sequence (P00352 1-501): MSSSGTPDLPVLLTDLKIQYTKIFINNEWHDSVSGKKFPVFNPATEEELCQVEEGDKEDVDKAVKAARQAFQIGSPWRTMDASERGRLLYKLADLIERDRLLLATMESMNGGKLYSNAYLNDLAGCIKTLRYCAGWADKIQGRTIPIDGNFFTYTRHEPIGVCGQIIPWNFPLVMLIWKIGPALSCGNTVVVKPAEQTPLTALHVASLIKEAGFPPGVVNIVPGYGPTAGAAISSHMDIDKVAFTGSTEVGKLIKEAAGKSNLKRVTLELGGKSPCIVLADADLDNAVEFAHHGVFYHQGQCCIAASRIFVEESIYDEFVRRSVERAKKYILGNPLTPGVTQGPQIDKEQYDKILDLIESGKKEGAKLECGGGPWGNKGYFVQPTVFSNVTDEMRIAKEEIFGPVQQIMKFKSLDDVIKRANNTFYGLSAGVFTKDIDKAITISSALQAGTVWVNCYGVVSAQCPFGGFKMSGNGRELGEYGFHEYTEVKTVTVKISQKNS

spermatogenesis = details: cited from earlier work

For `CC1=C(/C=C/C(C)=C/C=C/C(C)=C/C(=O)C(Cl)Cl)C(C)(C)CCC1` [DAR, (3E,5E,7E,9E)-1,1-dichloro-4,8-dimethyl-10-(2,6,6-trimethylcyclohex-1-en-1-yl)deca-3,5,7,9-tetraen-2-one], the “retinoic acid (atRA) synthesis by RALDH” value (RALDH) was “significantly inhibited”, the “activity of RALDH3 assessed by NADH synthesis” value (RALDH3) was “effectively inhibits” and the IC50 (RALDH2; NADH synthesis, 95% C.I.=41.0-66.4 nM) was 52.2 nM. For the same molecule, the “activity of RALDH2 assessed by NADH synthesis” value (RALDH2; in the presence of DAR, fluorescence-based NADH sensor) was “effectively inhibits”, the “effect on ALDH2 assessed by NADH synthesis” value [1] was “does not significantly inhibit” and the “activity of RALDH1 assessed by NADH synthesis” value [2] was “effectively inhibits”.
In the case of `O=C(NCCCCCCCCNC(=O)C(Cl)Cl)C(Cl)Cl` [WIN-18446], the inhibition of spermatogenesis (spermatogenesis; human males) is given as “potent, reversible inhibitor of spermatogenesis”, the “reactions in patients who consumed alcohol” value (spermatogenesis; human, alcohol consumed while taking compound, due to inhibition of ALDH2) is given as “violent “disulfiram” reactions” and the “effect on ALDH2 assessed by NADH synthesis” value [1] is given as “non-specific ALDH2 inhibitor”.
